Assay results: patent US9580416B2, “Inhibitors of Bruton's tyrosine kinase” (PHARMACYCLICS LLC, priority 2014, dated 2017)
pIC50: −log10 of the molar value.

Legend:
Assay type in all cases: biochemical
[1] = target: Btk (Homo sapiens, UniProt Q06187); experiment: Btk kinase activity, TR-FRET assay; details: read-out: Btk (IC50)
How it was run: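 Enzyme (Btk 0.5 nM; Lck 6 nM) reacted 1 h with inhibitor, ATP at Km and biotin-peptide substrate in pH 7.4 buffer, 10% DMSO. Phosphopeptide detected by Eu-p-Tyr100 antibody plus streptavidin-APC (665/615 nm). IC50 calculated from fitted Ki(app) via ATP/Km correction plus half total enzyme.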

[2] = target: Lck (Homo sapiens, UniProt P06239); experiment: Lck kinase activity, TR-FRET assay; details: read-out: LCK (IC50)
Chain of Lck (P06239 whole entry, species assumed): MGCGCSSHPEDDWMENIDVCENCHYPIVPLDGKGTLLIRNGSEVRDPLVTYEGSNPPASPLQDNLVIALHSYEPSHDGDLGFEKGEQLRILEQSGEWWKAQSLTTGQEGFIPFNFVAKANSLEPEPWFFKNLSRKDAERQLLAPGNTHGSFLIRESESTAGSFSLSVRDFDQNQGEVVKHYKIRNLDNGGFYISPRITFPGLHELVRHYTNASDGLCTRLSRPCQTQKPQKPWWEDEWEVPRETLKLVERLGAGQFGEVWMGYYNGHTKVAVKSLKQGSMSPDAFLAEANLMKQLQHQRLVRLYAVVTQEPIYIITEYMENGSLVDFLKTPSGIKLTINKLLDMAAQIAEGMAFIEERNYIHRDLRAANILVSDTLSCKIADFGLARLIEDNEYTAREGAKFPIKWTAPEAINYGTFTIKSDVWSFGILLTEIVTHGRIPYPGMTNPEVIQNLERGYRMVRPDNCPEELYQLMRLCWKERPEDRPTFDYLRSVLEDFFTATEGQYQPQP
Protocol: Btk kinase activity is determined using a time-resolved fluorescence resonance energy transfer (TR-FRET) methodology. Measurements are performed in a reaction volume of 50 μL using 96-well assay plates. Kinase enzyme, inhibitor, ATP (at the Km for the kinase), and 1 […] (Biotin-AVLESEEELYSSARQ-NH2) are incubated in a reaction buffer composed of 20 mM Tris, 50 mM NaCl, MgCl2 (5-25 mM depending on the kinase), MnCl2 (0-10 mM), 1 mM DTT, 0.1 mM EDTA, 0.01% bovine serum albumin, 0.005% Tween-20, and 10% DMSO at pH 7.4 for one hour. The reaction is quenched by the addition of 1.2 equivalents of EDTA (relative to divalent cation) in 25 μL of 1× Lance buffer (Perkin-Elmer). Streptavidin-APC (Perkin-Elmer) and Eu-labeled p-Tyr100 antibody (Perkin-Elmer) in 1× Lance buffer are added in a 25 μL volume to give final concentrations of 100 nM and 2.5 nM, respectively, and the mixture is allowed to incubate for one hour. The TR-FRET signal is measured on a multimode plate reader with an excitation wavelength (λEx) of 330 nm and detection wavelengths (λEm) of 615 and 665 nm. Activity is determined by the ratio of the fluorescence at 665 nm to that at 615 nm. For each compound, enzyme activity is measured at various concentrations of compound. Negative control reactions are performed in the absence of inhibitor in replicates of six, and two no-enzyme controls are used to determine baseline fluorescence levels. Inhibition constants, Ki(app), ware obtained using the program BatchKi (Kuzmic et al. (2000), Anal. Biochem. 286:45-50). IC50s are obtained according to the equation: IC50={Ki(app)/(1+[ATP]/Km^ATP)}+[E]total/2;
For all kinases, [ATP]=Km^ATP, [Btk]total=0.5 nM and [Lck]total=6 nM.

[3] = target: EGFR (Homo sapiens, UniProt P00533); experiment: Inhibition of a panel of kinases, in vitro HotSpot kinase assay: EGFR
Chain of EGFR (P00533 25-1210): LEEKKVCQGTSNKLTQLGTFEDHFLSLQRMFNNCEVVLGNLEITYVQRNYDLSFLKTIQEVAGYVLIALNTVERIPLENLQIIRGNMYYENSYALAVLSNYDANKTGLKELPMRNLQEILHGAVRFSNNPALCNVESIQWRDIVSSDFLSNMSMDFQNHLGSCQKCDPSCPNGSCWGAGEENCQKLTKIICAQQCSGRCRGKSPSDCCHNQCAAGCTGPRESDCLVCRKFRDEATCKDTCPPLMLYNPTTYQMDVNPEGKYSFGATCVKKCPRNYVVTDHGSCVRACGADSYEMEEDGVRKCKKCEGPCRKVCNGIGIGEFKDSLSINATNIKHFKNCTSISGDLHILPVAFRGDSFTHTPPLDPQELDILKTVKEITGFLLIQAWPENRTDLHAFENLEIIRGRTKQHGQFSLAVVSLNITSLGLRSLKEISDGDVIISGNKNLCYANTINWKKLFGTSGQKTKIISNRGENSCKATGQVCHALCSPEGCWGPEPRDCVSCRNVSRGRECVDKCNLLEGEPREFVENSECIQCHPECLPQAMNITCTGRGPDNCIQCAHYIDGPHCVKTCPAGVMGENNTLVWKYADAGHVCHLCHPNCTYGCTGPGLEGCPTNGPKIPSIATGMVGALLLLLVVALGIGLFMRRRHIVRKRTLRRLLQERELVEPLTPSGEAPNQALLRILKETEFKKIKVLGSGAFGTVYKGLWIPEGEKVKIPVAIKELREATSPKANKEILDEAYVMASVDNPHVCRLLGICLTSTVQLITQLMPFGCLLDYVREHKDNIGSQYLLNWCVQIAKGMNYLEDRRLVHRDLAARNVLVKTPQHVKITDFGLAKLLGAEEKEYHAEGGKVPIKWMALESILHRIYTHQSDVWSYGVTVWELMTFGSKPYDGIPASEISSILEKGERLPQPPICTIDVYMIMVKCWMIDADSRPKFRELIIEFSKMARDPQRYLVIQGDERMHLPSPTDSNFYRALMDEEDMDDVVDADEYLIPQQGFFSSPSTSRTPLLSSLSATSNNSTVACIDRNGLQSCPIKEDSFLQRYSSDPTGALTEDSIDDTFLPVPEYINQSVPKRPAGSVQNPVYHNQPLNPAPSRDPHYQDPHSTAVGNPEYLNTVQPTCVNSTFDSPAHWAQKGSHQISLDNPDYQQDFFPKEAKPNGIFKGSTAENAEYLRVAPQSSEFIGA
Protocol: The degree of inhibition of a panel of kinases is determined using the in vitro HotSpot kinase assay (purified enzymes, ^33P-ATP, an appropriate substrate and 1 uM ATP).

Chain of Btk (Q06187 whole entry): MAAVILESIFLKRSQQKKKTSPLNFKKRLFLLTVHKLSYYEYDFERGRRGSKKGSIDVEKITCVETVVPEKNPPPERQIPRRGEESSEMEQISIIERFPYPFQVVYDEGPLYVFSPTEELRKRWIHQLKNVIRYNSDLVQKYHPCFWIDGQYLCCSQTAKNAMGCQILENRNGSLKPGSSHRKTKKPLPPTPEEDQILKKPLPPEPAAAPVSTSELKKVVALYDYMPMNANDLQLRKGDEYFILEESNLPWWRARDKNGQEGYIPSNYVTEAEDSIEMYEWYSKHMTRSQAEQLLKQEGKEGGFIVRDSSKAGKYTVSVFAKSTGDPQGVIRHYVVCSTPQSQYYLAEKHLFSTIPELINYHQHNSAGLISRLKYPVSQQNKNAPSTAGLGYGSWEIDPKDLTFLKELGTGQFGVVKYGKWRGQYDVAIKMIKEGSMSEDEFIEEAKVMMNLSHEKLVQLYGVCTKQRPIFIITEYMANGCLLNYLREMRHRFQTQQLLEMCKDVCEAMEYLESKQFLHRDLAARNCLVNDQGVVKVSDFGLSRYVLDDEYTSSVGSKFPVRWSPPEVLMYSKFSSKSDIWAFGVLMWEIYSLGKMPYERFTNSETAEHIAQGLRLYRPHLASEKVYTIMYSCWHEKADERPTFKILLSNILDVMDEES

SMILES | pIC50 [1] | pIC50 [2] | pIC50 [3]
N#CCC(=O)N1CC[C@@H](Nc2n[nH]c3nccc(Oc4ccc(Oc5ccccc5)cc4)c23)C1 [compound 44] | > 7.00 | > 7.00 | 6.00 to 7.00
CN1CC[C@@H](Nc2n[nH]c3nccc(Oc4ccc(Oc5ccccc5)cc4)c23)C1 [compound 45] | > 7.00 | > 7.00 | 6.00 to 7.00
CC(=O)N1CC[C@@H](Nc2n[nH]c3nccc(Oc4ccc(Oc5ccccc5)cc4)c23)C1 [compound 46] | > 7.00 | > 7.00 | 6.00 to 7.00
c1ccc(Oc2ccc(Oc3ccnc4[nH]nc(NC5CCOCC5)c34)cc2)cc1 [compound 47] | > 7.00 | > 7.00 | > 7.00
CN(C/C=C/C(=O)N1CC[C@@H](Nc2n[nH]c3ncnc(Oc4ccc(Oc5ccccc5)cc4)c23)C1)C1CC1 [compound 48] | 6.00 to 7.00 | 5.00 to 6.00 | 6.00 to 7.00
CCC(=O)N1CCC[C@@H](Nc2n[nH]c3ncnc(Oc4ccc(Oc5ccccc5)cc4)c23)C1 [compound 51] | 6.00 to 7.00 | 6.00 to 7.00 | > 7.00
CN(C/C=C/C(=O)N1CC[C@@H](Nc2n[nH]c3nccc(Oc4ccc(C(=O)Nc5ccccn5)cc4)c23)C1)C1CC1 [compound 55] | > 7.00 | 5.00 to 6.00 | < 5.00
CCCc1ccnc(NC(=O)c2ccc(Oc3ccnc4[nH]nc(N[C@@H]5CCN(C(=O)/C=C/CN(C)C6CC6)C5)c34)cc2)c1 [compound 56] | > 7.00 | 6.00 to 7.00 | 5.00 to 6.00
CN(C/C=C/C(=O)Nc1ccccc1Nc1n[nH]c2nccc(Oc3ccc(Oc4ccccc4)cc3)c12)C1CC1 [compound 57] | < 5.00 | < 5.00 | < 5.00
COc1ccnc(NC(=O)c2ccc(Oc3ccnc4[nH]nc(N[C@@H]5CCN(C(=O)/C=C/CN(C)C6CC6)C5)c34)cc2)c1 [compound 58] | > 7.00 | 5.00 to 6.00 | < 5.00
NC(=O)c1cc(Nc2n[nH]c3nccc(Oc4ccc(Oc5ccccc5)cc4)c23)ccn1 [compound 59] | 6.00 to 7.00 | > 7.00 | 6.00 to 7.00
CN(C/C=C/C(=O)N1CC[C@@H](Nc2n[nH]c3nccc(Oc4ccc(C(=O)Nc5cc(C6CC6)ccn5)cc4)c23)C1)C1CC1 [compound 60] | > 7.00 | 6.00 to 7.00 | 5.00 to 6.00
CC(C)c1ccnc(NC(=O)c2ccc(Oc3ccnc4[nH]nc(N[C@@H]5CCN(C(=O)/C=C/CN(C)C6CC6)C5)c34)cc2)c1 [compound 61] | > 7.00 | 6.00 to 7.00 | 5.00 to 6.00
CN(C/C=C/C(=O)N1CC[C@@H](Nc2n[nH]c3nccc(Oc4ccc(C(=O)Nc5cc(C#N)ccn5)cc4)c23)C1)C1CC1 [compound 62] | > 7.00 | 5.00 to 6.00 | 5.00 to 6.00
CN(C/C=C/C(=O)N1CC[C@@H](Nc2n[nH]c3nccc(Oc4ccc(C(=O)Nc5ncccn5)cc4)c23)C1)C1CC1 [compound 63] | 6.00 to 7.00 | < 5.00 | < 5.00
CN(C/C=C/C(=O)N1CC[C@@H](Nc2n[nH]c3nccc(Oc4ccc(C(=O)Nc5ccncn5)cc4)c23)C1)C1CC1 [compound 64] | 6.00 to 7.00 | < 5.00 | < 5.00

SMILES | pIC50 [1] | pIC50 [2] | pIC50 [3]
N#CCNC(=O)c1cc(Nc2n[nH]c3nccc(Oc4ccc(Oc5ccccc5)cc4)c23)ccn1 [compound 65] | 6.00 to 7.00 | > 7.00 | 6.00 to 7.00
CCC(=O)N1CC[C@@H](Nc2n[nH]c3nccc(Oc4ccc(C(=O)Nc5cc(C(F)(F)F)ccn5)cc4)c23)C1 [compound 66] | > 7.00 | 6.00 to 7.00 | 5.00 to 6.00
CN(C/C=C/C(=O)N1CC[C@@H](Nc2n[nH]c3nccc(Oc4ccc(C(=O)Nc5ncc[nH]5)cc4)c23)C1)C1CC1 [compound 67] | 6.00 to 7.00 | < 5.00 | < 5.00
CN(C)c1ccnc(NC(=O)c2ccc(Oc3ccnc4[nH]nc(N[C@@H]5CCN(C(=O)/C=C/CN(C)C6CC6)C5)c34)cc2)c1 [compound 68] | > 7.00 | 5.00 to 6.00 | < 5.00
CCC(=O)N1CC[C@@H](Nc2n[nH]c3nccc(Oc4ccc(C(=O)Nc5nc6ccccc6[nH]5)cc4)c23)C1 [compound 69] | 6.00 to 7.00 | 6.00 to 7.00 | < 5.00
CCC(=O)N1CC[C@@H](Nc2n[nH]c3nccc(Nc4ccc(C(=O)Nc5cc(C(F)(F)F)ccn5)cc4)c23)C1 [compound 70] | > 7.00 | 6.00 to 7.00 | 5.00 to 6.00
CCC(=O)N1CC[C@@H](Oc2n[nH]c3nccc(Nc4ccc(C(=O)Nc5cc(C(F)(F)F)ccn5)cc4)c23)C1 [compound 71] | > 7.00 | 6.00 to 7.00 | 5.00 to 6.00
CCC(=O)N1CC[C@@H](Nc2n[nH]c3nccc(Oc4ccc(C(=O)Nc5nccn5C)cc4)c23)C1 [compound 73, N-(1-methyl-1H-imidazol-2-yl)-4-[(3-{[(3R)-1-propanoylpyrrolidin-3-yl]amino}-1H-pyrazolo[3,4-b]pyridin-4-yl)oxy]benzamide] | < 5.00 | < 5.00 | < 5.00
CCC(=O)N1CC[C@@H](Nc2n[nH]c3nccc(Oc4ccc(C(=O)Nc5nccc(=O)[nH]5)cc4)c23)C1 [compound 74, N-(6-oxo-1,6-dihydropyrimidin-2-yl)-4-[(3-{[(3R)-1-propanoylpyrrolidin-3-yl]amino}-1H-pyrazolo[3,4-b]pyridin-4-yl)oxy]benzamide] | < 5.00 | < 5.00 | < 5.00
CCC(=O)N1CC[C@@H](Nc2n[nH]c3nccc(Oc4ccc(C(=O)Nc5nnc(C)[nH]5)cc4)c23)C1 [compound 75, N-(5-methyl-4H-1,2,4-triazol-3-yl)-4-[(3-{[(3R)-1-propanoylpyrrolidin-3-yl]amino}-1H-pyrazolo[3,4-b]pyridin-4-yl)oxy]benzamide] | < 5.00 | < 5.00 | < 5.00
CN(C/C=C/C(=O)N1CC[C@@H](Nc2n[nH]c3nccc(Oc4ccc(C(=O)Nc5cc(OC6CC6)ccn5)cc4)c23)C1)C1CC1 [compound 76, (R,E)-N-(4-cyclopropoxypyridin-2-yl)-4-(3-(1-(4-(cyclopropyl(methyl)amino)but-2-enoyl)pyrrolidin-3-ylamino)-1H-pyrazolo[3,4-b]pyridin-4-yloxy)benzamide] | > 7.00 | 6.00 to 7.00 | 6.00 to 7.00
N#Cc1ccnc(NC(=O)c2ccc(Oc3ccnc4[nH]nc(NC5CCOCC5)c34)cc2)c1 [compound 77, N-(4-cyanopyridin-2-yl)-4-({3-[(oxan-4-yl)amino]-1H-pyrazolo[3,4-b]pyridin-4-yl}oxy)benzamide] | > 7.00 | 6.00 to 7.00 | 5.00 to 6.00
CCOC(=O)N1CCC[C@@H](Nc2n[nH]c3nccc(Oc4ccc(C(=O)Nc5cc(C#N)ccn5)cc4)c23)C1 [compound 78, ethyl (3R)-3-[(4-{4-[(4-cyanopyridin-2-yl)carbamoyl]phenoxy}-1H-pyrazolo[3,4-b]pyridin-3-yl)amino]piperidine-1-carboxylate] | > 7.00 | 6.00 to 7.00 | 5.00 to 6.00
CCNC(=O)N1CCC[C@@H](Nc2n[nH]c3nccc(Oc4ccc(C(=O)Nc5cc(C#N)ccn5)cc4)c23)C1 [compound 79, (3R)-3-[(4-{4-[(4-cyanopyridin-2-yl)carbamoyl]phenoxy}-1H-pyrazolo[3,4-b]pyridin-3-yl)amino]-N-ethylpiperidine-1-carboxamide] | > 7.00 | 6.00 to 7.00 | > 7.00
COCCC(=O)N1CCC[C@@H](Nc2n[nH]c3nccc(Oc4ccc(C(=O)Nc5cc(C#N)ccn5)cc4)c23)C1 [compound 80, N-(4-cyanopyridin-2-yl)-4-[(3-{[(3R)-1-(3-methoxypropanoyl)piperidin-3-yl]amino}-1H-pyrazolo[3,4-b]pyridin-4-yl)oxy]benzamide] | > 7.00 | 6.00 to 7.00 | > 7.00
N#Cc1ccnc(NC(=O)c2ccc(Oc3ccnc4[nH]nc(N[C@@H]5CCCN(C(=O)C6CC6)C5)c34)cc2)c1 [compound 81, N-(4-cyanopyridin-2-yl)-4-[(3-{[(3R)-1-cyclopropanecarbonylpiperidin-3-yl]amino}-1H-pyrazolo[3,4-b]pyridin-4-yl)oxy]benzamide] | > 7.00 | 6.00 to 7.00 | 5.00 to 6.00
